# “Also recorded” adds a separate entry of the source.
# System: microorganisms (e.g., bacteria, yeasts, fungi)
# Test: Targeting peptide binding to target microorganisms (Table 3)
# Conditions: microorganism the targeting peptide binds; binding in aqueous buffers varied by peptide solubility, preferably 1x PBS
row,Substance,Target(s)
1,1T-93 (AMRSVNQA; Peptide with targeting and/or antimicrobial activity) [Peptide 1T-93],S. epidermidis; also recorded: S. gordonii; also recorded: S. mitis; also recorded: S. mutans; also recorded: S. oralis; also recorded: S. sanguinis
2,1T-94 (DQVAHSGDMLVQARRRDS; Peptide with targeting and/or antimicrobial activity) [Peptide 1T-94],S. mitis; also recorded: S. mutans; also recorded: S. oralis
3,1T-95 (GHLLRVGGRVGGVGGVAGACAQPFGGQ; Peptide with targeting and/or antimicrobial activity) [Peptide 1T-95],S. gordonii; also recorded: S. mitis; also recorded: S. mutans; also recorded: S. oralis; also recorded: S. sanguinis
4,1T-96 (VAGACAQPFGGQ; Peptide with targeting and/or antimicrobial activity) [Peptide 1T-96],S. gordonii; also recorded: S. mitis; also recorded: S. mutans; also recorded: S. oralis; also recorded: S. sanguinis
5,1T-99 (MKAWLGQ; Peptide with targeting and/or antimicrobial activity) [Peptide 1T-99],S. gordonii; also recorded: S. mitis; also recorded: S. mutans; also recorded: S. oralis; also recorded: S. sanguinis
6,1T-100 (LDPLEPRIAPPGDRSHQGAPACHRDPLRGRSARDAER; Peptide with targeting and/or antimicrobial activity) [Peptide 1T-100],S. gordonii; also recorded: S. mitis; also recorded: S. mutans
7,1T-101 (RLRVGRATDLPLTSFAVGVVRNLPDAPAH; Peptide with targeting and/or antimicrobial activity) [Peptide 1T-101],A. naeslundii; also recorded: P. gingivalis; also recorded: S. epidermidis; also recorded: S. gordonii; also recorded: S. mitis; also recorded: S. mutans; also recorded: S. oralis; also recorded: S. sanguinis
8,1T-104 (RAVAAHLQGRHHGHQVRRQRHGQR; Peptide with targeting and/or antimicrobial activity) [Peptide 1T-104],S. mitis
9,1T-105 (GEGLPPPVLHLPPPRMSGR; Peptide with targeting and/or antimicrobial activity) [Peptide 1T-105],S. epidermidis; also recorded: S. gordonii; also recorded: S. mitis; also recorded: S. mutans; also recorded: S. oralis
10,1T-106 (DALRRSRSQGRRHR; Peptide with targeting and/or antimicrobial activity) [Peptide 1T-106],S. gordonii; also recorded: S. mitis; also recorded: S. mutans; also recorded: S. oralis; also recorded: S. salivarious
11,1T-107 (SPVPRFTAVGGVSRGSP; Peptide with targeting and/or antimicrobial activity) [Peptide 1T-107],A. naeslundii; also recorded: S. epidermidis; also recorded: S. gordonii; also recorded: S. mitis; also recorded: S. mutans; also recorded: S. oralis; also recorded: S. salivarious; also recorded: S. sanguinis
12,1T-108 (WGPLGPERPLW; Peptide with targeting and/or antimicrobial activity) [Peptide 1T-108],S. gordonii; also recorded: S. mitis; also recorded: S. mutans; also recorded: S. oralis; also recorded: S. salivarious; also recorded: S. sanguinis
13,1T-109 (VTTNVRQGAGS; Peptide with targeting and/or antimicrobial activity) [Peptide 1T-109],A. naeslundii; also recorded: S. epidermidis; also recorded: S. gordonii; also recorded: S. mitis; also recorded: S. mutans; also recorded: S. oralis; also recorded: S. salivarious; also recorded: S. sanguinis
14,1T-110 (LAAKTAVCVGRAFM; Peptide with targeting and/or antimicrobial activity) [Peptide 1T-110],A. naeslundii; also recorded: P. gingivalis; also recorded: S. epidermidis; also recorded: S. gordonii; also recorded: S. mitis; also recorded: S. mutans; also recorded: S. oralis; also recorded: S. sanguinis
15,1T-112 (SDNDGKLILGTSQ; Peptide with targeting and/or antimicrobial activity) [Peptide 1T-112],S. gordonii
16,1T-113 (HGAHQRTGQRLHHHRGRTVSGCRQNPVAGVDPDEHR; Peptide with targeting and/or antimicrobial activity) [Peptide 1T-113],S. mitis
17,1T-114 (RQAPGPGLVTITAACSAPGSRSR; Peptide with targeting and/or antimicrobial activity) [Peptide 1T-114],A. naeslundii; also recorded: P. gingivalis; also recorded: S. epidermidis; also recorded: S. gordonii; also recorded: S. mitis; also recorded: S. mutans; also recorded: S. oralis; also recorded: S. sanguinis
18,1T-117 (GPGVVGPAPFSRLPAHALNL; Peptide with targeting and/or antimicrobial activity) [Peptide 1T-117],S. mutans
19,1T-119 (SPATQKAPTRAQPSRAPVQDCGDGRPTAAPDDVERLSPR; Peptide with targeting and/or antimicrobial activity) [Peptide 1T-119],S. gordonii; also recorded: S. mitis; also recorded: S. mutans; also recorded: S. oralis
20,1T-121 (FAKETGFGIGGAQEGWWIIADIYGPNPF; Peptide with targeting and/or antimicrobial activity) [Peptide 1T-121],S. gordonii; also recorded: S. mitis; also recorded: S. mutans; also recorded: S. oralis; also recorded: S. salivarious; also recorded: S. sanguinis

row,Substance,Target(s)
1,1T-122 (GAIPDPVTHRVDWEEDHQTRPSR; Peptide with targeting and/or antimicrobial activity) [Peptide 1T-122],S. mitis
2,1T-123 (LVRRNAVAGRSDGLAGAEQLDLVRLQGVL; Peptide with targeting and/or antimicrobial activity) [Peptide 1T-123],S. gordonii
3,1T-124 (LFDERNKIA; Peptide with targeting and/or antimicrobial activity) [Peptide 1T-124],S. mitis; also recorded: S. mutans; also recorded: S. oralis
4,1T-125 (DAITGGNPPLSDTDGLRP; Peptide with targeting and/or antimicrobial activity) [Peptide 1T-125],S. epidermidis; also recorded: S. gordonii; also recorded: S. mutans; also recorded: S. oralis
5,1T-126 (QGLARPVLRRIPL; Peptide with targeting and/or antimicrobial activity) [Peptide 1T-126],S. gordonii; also recorded: S. mitis; also recorded: S. mutans
6,1T-139 (AVAGAAVGALLGNDARSTAVGAAIGGALGAGAGELTKNK; Peptide with targeting and/or antimicrobial activity) [Peptide 1T-139],A. naeslundii; also recorded: S. gordonii; also recorded: S. mitis; also recorded: S. mutans; also recorded: S. oralis
7,1T-141 (KKFIILLFILVQGLIFSATKTLSDIIAL; Peptide with targeting and/or antimicrobial activity) [Peptide 1T-141],F. nucleatum; also recorded: P. gingivalis; also recorded: S. epidermidis; also recorded: S. gordonii; also recorded: S. mitis; also recorded: S. mutans; also recorded: S. oralis; also recorded: S. sanguinis
8,1T-145 (VEAGKRNISLENIEKISKGLGISISELFKYIEEGEDKIG; Peptide with targeting and/or antimicrobial activity) [Peptide 1T-145],S. mitis; also recorded: S. mutans; also recorded: S. oralis
9,1T-154 (YFSFLEIVGMARR; Peptide with targeting and/or antimicrobial activity) [Peptide 1T-154],P. gingivalis
10,1T-159 (IFSLHHFALICSEMGTFAVSKRAKYKWEVL; Peptide with targeting and/or antimicrobial activity) [Peptide 1T-159],P. gingivalis
11,1T-170 (AYGKVFSMDIMLSENDKLIVLRISHHSAWH; Peptide with targeting and/or antimicrobial activity) [Peptide 1T-170],P. gingivalis
12,1T-177 (GTNVPTQILGYSREERFDYEPAPEQR; Peptide with targeting and/or antimicrobial activity) [Peptide 1T-177],P. gingivalis; also recorded: S. gordonii; also recorded: S. mitis; also recorded: S. mutans; also recorded: S. oralis; also recorded: S. salivarious; also recorded: S. sanguinis
13,1T-188 (HRKDVYKK; Peptide with targeting and/or antimicrobial activity) [Peptide 1T-188],S. sanguinis
14,1T-192 (ILVLLALQVELDSKFQY; Peptide with targeting and/or antimicrobial activity) [Peptide 1T-192],S. sanguinis
15,1T-193 (LMIFDKHANLKYKYGNRSFGVEAIM; Peptide with targeting and/or antimicrobial activity) [Peptide 1T-193],S. sanguinis
16,1T-195 (AASGFTYCASNGVWHPY; Peptide with targeting and/or antimicrobial activity) [Peptide 1T-195],S. mutans
17,1T-196 (KPEKEKLDTNTLMKVVNKALSLFDRLLIKFGA; Peptide with targeting and/or antimicrobial activity) [Peptide 1T-196],F. nucleatum; also recorded: S. sanguinis
18,1T-198 (MPVSKKRYMLSSAYATALGICYGQVATDEKESEITAIPDLLDYLSVEEYLL; Peptide with targeting and/or antimicrobial activity) [Peptide 1T-198],P. gingivalis; also recorded: S. epidermidis; also recorded: S. gordonii; also recorded: S. mitis; also recorded: S. mutans; also recorded: S. oralis; also recorded: S. sanguinis
19,1T-199 (RAGRIKKLSQKEAEPFEN; Peptide with targeting and/or antimicrobial activity) [Peptide 1T-199],S. sanguinis
20,1T-201 (KRKHENVIVAEEMRVIKN; Peptide with targeting and/or antimicrobial activity) [Peptide 1T-201],S. sanguinis

# Reference: patent US20110039762A1, “TARGETED ANTIMICROBIAL MOIETIES” (C3 JIAN, INC., priority 2009, published 2011)
